From patent publication US20120041012A1, “SUBSTITUTED SPIROCYCLIC AMINES USEFUL AS ANTIDIABETIC COMPOUNDS” (priority 2009, published 2012)
pIC50, pKi: −log10 of the molar value.

Key:
SSTR5 [1] = biological target: T1, SSTR5 (Homo sapiens, UniProt P35346); experiment: SSTR5 receptor-ligand binding assay, CHO-K1 cell membranes, 125I-SRIF radioligand; design: expressed in transfected cells; host or cells: CHO-K1 (membranes); details: Table 2
Experimental: The receptor-ligand binding assays of all 5 subtype of SSTRs were performed with membranes isolated from Chinese hamster ovary (CHO)-K1 cells stably expressing the cloned human somatostatin receptors in 96-well format as previous reported.
The stable cell lines for SSTR1-SSTR5 were developed by stably transfecting with DNA for all five SSTRs using Lipofectamine. […] The assay buffer consisted of 50 mM TrisHCl (pH 7.8) with 1 mM EGTA, 5 mM MgCl2, leupeptin (10 μg/mL), pepstatin (10 μg/mL), bacitracin (200 μg/mL), and aprotinin (0.5 μg/mL). CHO-K1 cell membranes, radiolabeled somatostatin, and unlabeled test compounds were resuspended or diluted in this assay buffer. Unlabeled test compounds were examined over a range of concentrations from 0.01 nM to 10,000 nM.

SSTR5 [2] = biological target: T1, SSTR5; experiment: Functional assay of SSTR5 mediated cyclic AMP production in SSTR5 expressing CHO cells; type: cell-based, human or mouse; details: Table 2; FSK plus SS-28; read-out: SSTR5 (cAMP) IC50

T1 sequence (P35346 whole entry): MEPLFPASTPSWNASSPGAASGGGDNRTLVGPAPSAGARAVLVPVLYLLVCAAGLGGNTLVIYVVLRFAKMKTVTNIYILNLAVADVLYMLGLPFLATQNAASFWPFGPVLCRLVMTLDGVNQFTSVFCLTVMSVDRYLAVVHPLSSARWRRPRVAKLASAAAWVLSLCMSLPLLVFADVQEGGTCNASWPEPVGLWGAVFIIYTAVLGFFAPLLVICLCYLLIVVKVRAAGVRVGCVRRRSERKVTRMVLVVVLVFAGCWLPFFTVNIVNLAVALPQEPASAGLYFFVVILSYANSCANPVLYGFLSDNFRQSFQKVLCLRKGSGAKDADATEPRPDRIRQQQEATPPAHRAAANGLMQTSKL

Structure (SMILES)	pKi (SSTR5 [1])	pIC50 (SSTR5 [2])
CCOc1cc(CN2CCC3(CC2)CNC(=O)C3)cc(OCC)c1-c1ccc(F)cc1 [Example 1, 8-[(2,6-diethoxy-4′-fluorobiphenyl-4-yl)methyl]-2,8-diazaspiro[4.5]decan-3-one]	7.68	7.28
CCOc1cc(CN2CCC3(CC2)CC(=O)N(c2ccc(C(N)=O)cc2)C3)cc(OCC)c1-c1ccc(F)cc1 [Example 3, 4-{8-[(2,6-diethoxy-4′-fluorobiphenyl-4-yl)methyl]-3-oxo-2,8-diazaspiro[4.5]dec-2-yl}benzamide trifluoromethyl acetate]	8.06	7.48
CCOc1cc(CN2CCC3(CC2)CC(=O)N(c2ccc(C(=O)O)cc2)C3)cc(OCC)c1Br [Example 5]	8.12	8.41
CCOc1cc(CN2CCC3(CC2)CC(=O)N(c2ccc(-c4noc(=O)[nH]4)cc2)C3)cc(OCC)c1-c1ccc(F)cc1 [Example 6, 8-[(2,6-diethoxy-4′-fluorobiphenyl-4-yl)methyl]-2-[4-(5-oxo-4,5-dihydro-1,2,4-oxadiazol-3-yl)phenyl]-2,8-diazaspiro[4.5]decan-3-one]	9.00	8.74
CCOc1cc(CN2CCC3(CC2)CC(=O)N(c2ccc(-c4nnn[nH]4)cc2)C3)cc(OCC)c1-c1ccc(F)cc1 [Example 7, 8-[(2,6-diethoxy-4′-fluorobiphenyl-4-yl)methyl]-2-[4-(1-H-tetrazol-5-yl)phenyl]-2,8-diazaspiro[4.5]decan-3-one trifluoromethyl acetate]	9.12	8.89
CCOc1cc(CN2CCC3(CC2)CC(=O)N(CC(=O)O)C3)cc(OCC)c1-c1ccc(F)cc1 [Example 8, {8-[(2,6-diethoxy-4′-fluorobiphenyl-4-yl)methyl]-3-oxo-2,8-diazaspiro[4.5]dec-2-yl}acetic acid trifluoromethyl acetate]	6.72	6.80
CCOc1cc(CN2CCC3(CC2)CC(=O)N(CCO)C3)cc(OCC)c1-c1ccc(F)cc1 [Example 9, 8-[(2,6-diethoxy-4′-fluorobiphenyl-4-yl)methyl]-2-(2-hydroxyethyl)-2,8-diazaspiro[4.5]decan-3-one trifluoromethyl acetate]	7.15	6.80
CCOc1cc(CN2CCC3(CC2)CC(=O)N(CCCC(=O)O)C3)cc(OCC)c1-c1ccc(F)cc1 [Example 23]	7.28	7.36
CCOc1cc(CN2CCC3(CC2)CC(=O)N(c2ccc(C(=O)O)cc2)C3)cc(OCC)c1-c1ccc(C(F)(F)F)cc1 [Example 35]	9.07	9.21
CCOc1cc(CN2CCC3(CC2)CC(=O)N(c2ccc(C(=O)O)cc2)C3)cc(OCC)c1-c1ccc(OC(F)(F)F)cc1 [Example 37]	9.31	9.22
CCOc1cc(CN2CCC3(CC2)CC(=O)N(c2ccc(C(=O)O)cc2)C3)cc(OCC)c1-c1cc(F)ccc1F [Example 44]	8.81	9.55
CCOc1cc(CN2CCC3(CC2)CC(=O)N(c2ccc(C(=O)O)cc2)C3)cc(OCC)c1-c1ccc(F)c(F)c1F [Example 45]	9.08	8.82
CCOc1cc(CN2CCC3(CC2)CC(=O)N(c2ccc(-c4n[nH]c(=O)o4)cc2)C3)cc(OCC)c1-c1ccc(F)cc1 [Example 49]	8.05	7.47
CCOc1cc(CN2CCC3(CC2)CC(=O)N(Cc2cccc(C(=O)O)c2)C3)cc(OCC)c1-c1ccc(F)cc1 [Example 52]	7.17	7.68
CCOc1cc(CN2CCC3(CC2)CC(=O)N(Cc2ccc(F)cc2)C3)cc(OCC)c1-c1ccc(F)cc1 [Example 53]	8.41	8.07
CCOc1cc(CN2CCC3(CC2)CC(=O)N(c2cncc(C(=O)O)c2)C3)cc(OCC)c1-c1ccc(F)cc1 [Example 57]	8.00	8.44
CCOc1cc(CN2CCC3(CC2)CC(=O)N(c2cccc(-c4nnn[nH]4)c2)C3)cc(OCC)c1-c1ccc(F)cc1 [Example 59]	8.44	8.33

Structure (SMILES)	pKi (SSTR5 [1])	pIC50 (SSTR5 [2])
CCOc1cc(CN2CCC3(CC2)CC(=O)N(c2cccc(C(N)=O)c2)C3)cc(OCC)c1-c1ccc(F)cc1 [Example 60]	8.39	7.80
CCOc1cc(CN2CCC3(CC2)CC(=O)N(c2ccccc2S(C)(=O)=O)C3)cc(OCC)c1-c1ccc(F)cc1 [Example 61]	8.70	7.89
CCOc1cc(CN2CCC3(CC2)CC(=O)N(c2ccc(C(=O)O)cc2)C3)cc(OCC)c1-c1ncc(F)cc1F [Example 65]	8.35	8.44
O=C(O)c1ccc(N2CC3(CCN(Cc4cc(OC5CC5)c(-c5ncc(F)cc5F)c(OC5CC5)c4)CC3)CC2=O)cc1 [Example 66]	8.35	8.74
CCOc1cc(CN2CCC3(CC2)CC(=O)N(c2ccc(O)nc2)C3)cc(OCC)c1-c1ccc(F)cc1 [Example 74]	8.51	8.51
CCOc1cc(CN2CCC3(CC2)CC(=O)N(c2cncc(O)c2)C3)cc(OCC)c1-c1ccc(F)cc1 [Example 81]	8.43	8.10
CCOc1cc(CN2CCC3(CC2)CC(=O)N(c2ccc(C(=O)O)cn2)C3)cc(OCC)c1-c1ccc(F)cc1 [Example 84]	8.11	8.33
CCOc1cc(CN2CCC3(CC2)CC(=O)N(c2ccc(C(=O)O)nc2)C3)cc(OCC)c1-c1ccc(F)cc1 [Example 85]	8.28	8.21
CCOc1cc(CN2CCC3(CC2)CC(=O)N(c2nccc(O)n2)C3)cc(OCC)c1-c1ccc(F)cc1 [Example 87]	6.47	7.19
CCOc1ccc(-c2ccc(F)cc2F)c(CN2CCC3(CC2)CC(=O)N(c2ccc(C(=O)O)cc2)C3)c1 [Example 94]	7.96	8.14
CCOc1ccc(-c2ccc(F)c(F)c2F)c(CN2CCC3(CC2)CC(=O)N(c2ccc(C(=O)O)cc2)C3)c1 [Example 97]	8.12	8.74
CCOc1cc(CN2CCC3(CC2)CC(=O)N(c2ccc(C(=O)O)cc2)C3)cc(-c2ccc(F)cc2F)c1 [Example 107]	7.40	7.44
CCOc1cc(CN2CCC3(CC2)CC(=O)N(c2ccc(C(=O)O)cc2)C3)cc(OCC)c1OCC [Example 148]	6.80	7.09
CC(C)Oc1cc(CN2CCC3(CC2)CC(=O)N(c2ccc(C(=O)O)cc2)C3)cc(OC(C)C)c1C#N [Example 152]	7.85	7.82
CCOc1cc(CN2CCC3(CC2)CC(=O)N(c2ccc(C(=O)O)cc2)C3)cc(OCC)c1OCC(F)(F)F [Example 153]	7.26	7.38
CCOc1cc(CN2CCC3(CC2)CC(=O)N(c2ccc(C(=O)O)cc2)C3)ccc1Cl [Example 159]	6.89	7.21
O=C(O)c1ccc(N2CC3(CCN(Cc4cc(O)c(-c5ccc(F)cc5)c(O)c4)CC3)CC2=O)cc1 [Example 162]	5.80	< 6.00
